Experimental data from patent publication US5214063A, “4-aminobutyric acid compounds, compositions and methods of use for treating disorders related to a dysfunction of GABAB receptors” (Adir et Compagnie, priority 1990, dated 1993).

Test system: hippocampal preparations (CA3 pyramidal cells)
Assay: Inhibition of excitation activity induced by convulsants (bicucullin) in hippocampal preparations
Format: cell-based
Settings: 10 min; excitation induced by bicucullin (50 μM), compound perfused 10 minutes, adult female rat hippocampal preparations; read-out: inhibiting concentration 50 (IC50)
Experimental: Hippocampal preparations were prepared from the brains of sacrificed adult female rats. Transverse sections were placed in a preservative medium. After 1 hour and 30 minutes' incubation, the isolated preparations were placed under registration, perfused with a saline solution and oxygenated. Spontaneous potentials appear which are associated with CA3 pyramidal cells. Excitation is induced by the addition of bicucullin (50 μM).
The compounds of the invention, at various concentrations, or baclofen are then added.
The baclofen or the compounds of the invention are perfused for periods of 10 minutes. The excitation rate is calculated during the four minutes preceding the perfusion of baclofen or the compounds of the invention and during the last four minutes of the perfusion of the products to be studied.
The inhibition is expressed as percentage excitation in relation to the initial rate, which permits the determination of an inhibiting concentration 50 (IC50). The compounds of the invention have an IC50 of from 5 to 20 μM; baclofen in this test has an IC50 of approximately 50 μM.

NCC(CC(=O)O)c1ccc(Cl)cc1 (stereo not shown) [baclofen, 4-amino-3-(4-chlorophenyl)butyric acid]
IC50: ~50 µM
